Measurements from PubChem BioAssay AID248 (DTP/NCI, 2004).
Toxic doses and inconclusive results are not listed. No stated cut-off is given here; in the data, active means T/C of 150% or more; inactive means T/C below 125%.

Test system: L1210 leukemia ip in BDF1 mice, survival T/C
Test: NCI In Vivo Anticancer Drug Screen. Data for tumor model L1210 Leukemia (intraperitoneal) in B6D2F1 (BDF1) mice
Details: endpoint: mean survival time, higher = longer survival
How it was run: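 Ratio derived from survival: compound-dosed mice over vehicle-dosed mice, all bearing a transplantable tumor.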

[1] = dose: 100.0 mg/kg/injection, schedule: Q04DX003 (ip), vehicle: saline with Tween-80
[2] = dose: 200.0 mg/kg/injection, schedule: Q04DX003 (ip), vehicle: saline with Tween-80
[3] = dose: 400.0 mg/kg/injection, schedule: Q04DX003 (ip), vehicle: saline with Tween-80
[4] = dose: 100.0 mg/kg/injection, schedule: Q04DX003 (ip), vehicle: saline
[5] = dose: 100.0 mg/kg/injection, schedule: Q04DX003 (ip), vehicle: Klucel (hydroxypropylcellulose) (HPC)
[6] = dose: 200.0 mg/kg/injection, schedule: Q04DX003 (ip), vehicle: Klucel (hydroxypropylcellulose) (HPC)
[7] = dose: 400.0 mg/kg/injection, schedule: Q04DX003 (ip), vehicle: Klucel (hydroxypropylcellulose) (HPC)
[8] = dose: 100.0 mg/kg/injection, schedule: Q01DX009 (ip), vehicle: gum acacia
[9] = dose: 100.0 mg/kg/injection, schedule: Q04DX003 (ip), vehicle: gum acacia
[10] = dose: 200.0 mg/kg/injection, schedule: Q01DX009 (ip), vehicle: gum acacia
[11] = dose: 200.0 mg/kg/injection, schedule: Q04DX003 (ip), vehicle: gum acacia
[12] = dose: 400.0 mg/kg/injection, schedule: Q01DX009 (ip), vehicle: gum acacia
[13] = dose: 400.0 mg/kg/injection, schedule: Q04DX003 (ip), vehicle: gum acacia

Measured: T/C

[C-]#[N+]CCCCCC
inactive: dose: 3.12 mg/kg/injection, schedule: Q04DX003 (sc), vehicle: olive oil, sesame oil, peanut oil 101 % of control | dose: 4.21 mg/kg/injection, schedule: Q01DX009 (ip), vehicle: olive oil, sesame oil, peanut oil 92 % of control | dose: 6.25 mg/kg/injection, schedule: Q04DX003 (sc), vehicle: olive oil, sesame oil, peanut oil 93 % of control | dose: 8.43 mg/kg/injection, schedule: Q01DX009 (sc), vehicle: olive oil, sesame oil, peanut oil 112 % of control | dose: 12.5 mg/kg/injection, schedule: Q04DX003 (sc), vehicle: olive oil, sesame oil, peanut oil 88 % of control | dose: 16.87 mg/kg/injection, schedule: Q01DX009 (sc), vehicle: olive oil, sesame oil, peanut oil 112 % of control | dose: 18.0 mg/kg/injection, schedule: Q04DX003 (sc), vehicle: other 104 % of control | dose: 28.0 mg/kg/injection, schedule: Q04DX003 (sc), vehicle: other 101 % of control | dose: 40.0 mg/kg/injection, schedule: Q04DX003 (sc), vehicle: other 108 % of control | dose: 60.0 mg/kg/injection, schedule: Q04DX003 (sc), vehicle: olive oil, sesame oil, peanut oil 111 % of control | dose: 90.0 mg/kg/injection, schedule: Q04DX003 (sc), vehicle: olive oil, sesame oil, peanut oil 100 % of control | dose: 135.0 mg/kg/injection, schedule: Q04DX003 (sc), vehicle: olive oil, sesame oil, peanut oil 109 % of control

Cn1c(NN)cc(=O)n(C)c1=O
inactive: dose: 75.0 mg/kg/injection, schedule: Q04DX003 (ip), vehicle: saline 107 % of control | dose: 150.0 mg/kg/injection, schedule: Q04DX003 (ip), vehicle: saline 94 % of control | dose: 300.0 mg/kg/injection, schedule: Q04DX003 (ip), vehicle: saline 104 % of control

C=CC(=O)O (tested in a mixture with another compound)
inactive: dose: 100.0 mg/kg/injection, schedule: Q01DX Z (ip), vehicle: saline 91 % of control

O=C1NC(=O)C(=Cc2ccc(N(CCCl)CCCl)cc2)C(=O)N1
inactive: dose: 100.0 mg/kg/injection, schedule: Q01DX Z (ip), vehicle: methylcellulose (MC) 102 % of control | dose: 200.0 mg/kg/injection, schedule: Q01DX Z (ip), vehicle: methylcellulose (MC) 121 % of control

O=C(/C=C\c1ccc(Cl)c(Cl)c1)/C=C/c1ccc(Cl)c(Cl)c1
inactive: dose: 100.0 mg/kg/injection, schedule: Q04DX002 (ip), vehicle: saline with Tween-80 92 % of control | dose: 400.0 mg/kg/injection, schedule: Q04DX002 (ip), vehicle: saline with Tween-80 92 % of control

O=NN(Cc1ccc(Cl)cc1)C(=O)NCc1ccc(Cl)cc1
inactive: dose: 400.0 mg/kg/injection, schedule: Q01DX Z (ip), vehicle: carboxymethylcellulose (CMC) 104 % of control

NC(=O)C1=CN(Cc2ccccc2)C=CC1
inactive: [1] 100 % of control | [2] 106 % of control | [3] 94 % of control

C/C=C/C(=O)OC(=O)/C=C/C
inactive: dose: 25.0 mg/kg/injection, schedule: Q04DX003 (ip), vehicle: saline with Tween-80 94 % of control | dose: 50.0 mg/kg/injection, schedule: Q04DX003 (ip), vehicle: saline with Tween-80 98 % of control | [1] 113 % of control | [4] 114 % of control

CC(C)Nc1nc(NC(C)C)nc(NC(C)C)n1
inactive: [5] 92 % of control | [6] 87 % of control | [7] 90 % of control

CC1(C)N=C(N)N=C(N)N1c1ccc(CCCCc2ccc(Cl)cc2Cl)cc1
inactive: dose: 5.0 mg/kg/injection, schedule: Q01DX001 (ip), vehicle: saline 88 % of control | dose: 10.0 mg/kg/injection, schedule: Q01DX001 (ip), vehicle: saline 92 % of control | dose: 20.0 mg/kg/injection, schedule: Q01DX001 (ip), vehicle: saline 103 % of control

O=P(NC12CC3CC(CC(C3)C1)C2)(c1ccccc1)N1CC1 (centres undefined)
inactive: [5] 86 % of control | [6] 88 % of control | [7] 89 % of control

Cc1cccc(C)c1OC(=O)Nc1ccccc1Cl
inactive: dose: 100.0 mg/kg/injection, schedule: Q04DX002 (ip), vehicle: Klucel (hydroxypropylcellulose) (HPC) 95 % of control | dose: 200.0 mg/kg/injection, schedule: Q04DX002 (ip), vehicle: Klucel (hydroxypropylcellulose) (HPC) 106 % of control | dose: 400.0 mg/kg/injection, schedule: Q04DX002 (ip), vehicle: Klucel (hydroxypropylcellulose) (HPC) 103 % of control

CC(C)(Oc1ccc(Cl)cc1)C(=O)O (tested in a mixture with another compound)
inactive: [4] 94 % of control | dose: 200.0 mg/kg/injection, schedule: Q04DX003 (ip), vehicle: saline 91 % of control | dose: 400.0 mg/kg/injection, schedule: Q04DX003 (ip), vehicle: saline 91 % of control

O=[N+]([O-])c1cc(C(F)(F)F)cc([N+](=O)[O-])c1N/N=C/c1ccccc1Cl
inactive: dose: 100.0 mg/kg/injection, schedule: Q01DX009 (ip), vehicle: saline with Tween-80 91 % of control | dose: 200.0 mg/kg/injection, schedule: Q01DX009 (ip), vehicle: saline with Tween-80 95 % of control | dose: 400.0 mg/kg/injection, schedule: Q01DX009 (ip), vehicle: saline with Tween-80 90 % of control

O=C(O)CCN1C(=O)CCC1=O
inactive: dose: 100.0 mg/kg/injection, schedule: Q01DX009 (ip), vehicle: saline 91 % of control | dose: 100.0 mg/kg/injection, schedule: Q04DX003 (ip), vehicle: saline sonified 105 % of control | dose: 200.0 mg/kg/injection, schedule: Q01DX009 (ip), vehicle: saline 94 % of control | dose: 200.0 mg/kg/injection, schedule: Q04DX003 (ip), vehicle: saline sonified 92 % of control | dose: 400.0 mg/kg/injection, schedule: Q01DX009 (ip), vehicle: saline 105 % of control | dose: 400.0 mg/kg/injection, schedule: Q04DX003 (ip), vehicle: saline sonified 95 % of control

COc1cc2c3c(c1)C(O)CC[N+]3(C)CCC2 (centres undefined)
inactive: dose: 12.5 mg/kg/injection, schedule: Q01DX009 (ip), vehicle: saline 90 % of control | dose: 12.5 mg/kg/injection, schedule: Q04DX003 (ip), vehicle: saline 114 % of control | dose: 25.0 mg/kg/injection, schedule: Q01DX009 (ip), vehicle: saline 95 % of control | dose: 25.0 mg/kg/injection, schedule: Q04DX003 (ip), vehicle: saline 98 % of control | dose: 50.0 mg/kg/injection, schedule: Q01DX009 (ip), vehicle: saline 92 % of control | dose: 50.0 mg/kg/injection, schedule: Q04DX003 (ip), vehicle: saline 112 % of control

NC(=S)N=Nc1c(O)n2c3c(cccc13)CCc1ccccc1-2
inactive: [1] 92 % of control | [2] 96 % of control | [3] 94 % of control

CCOCCN1CCN(CCCN2c3ccccc3Sc3ccc(C(F)(F)F)cc32)CC1
inactive: dose: 0.19 mg/kg/injection, schedule: Q01DX009 (ip), vehicle: water 95 % of control | dose: 0.39 mg/kg/injection, schedule: Q01DX009 (ip), vehicle: water 98 % of control | dose: 0.78 mg/kg/injection, schedule: Q01DX009 (ip), vehicle: water 111 % of control | dose: 1.56 mg/kg/injection, schedule: Q01DX009 (ip), vehicle: water 110 % of control | dose: 22.0 mg/kg/injection, schedule: Q04DX003 (ip), vehicle: other 122 % of control | dose: 100.0 mg/kg/injection, schedule: Q04DX003 (ip), vehicle: water 98 % of control

Cc1ccc(C(CC(=O)O)CC(=O)O)c(O)c1
inactive: [8] 96 % of control | [9] 95 % of control | [10] 93 % of control | [11] 93 % of control | [12] 88 % of control | [13] 90 % of control

CCN(C(=O)Nc1cccc2ccccc12)c1ccccc1C
inactive: [8] 100 % of control | [9] 98 % of control | [10] 96 % of control | [11] 98 % of control | [12] 86 % of control | [13] 96 % of control
